Test results published in PMC5218480 (PLoS ONE, 2017).

Test system: MV-4-11 cells
Assay: Gene expression microarray analysis (Affymetrix PrimeView) and GSEA
Format: cell-based, human
Parameters: RFU PODN (11730768_x_at) / Fold change /veh PODN (11730768_x_at) / RFU LINC00158 (11744669_a_at) / Fold change /veh LINC00158 (11744669_a_at) / RFU DUSP10 (11751237_a_at) / Fold change /veh DUSP10 (11751237_a_at) / RFU ID3 (11757404_x_at) / Fold change /veh ID3 (11757404_x_at) / RFU PLEKHG5 (11737974_s_at) / Fold change /veh PLEKHG5 (11737974_s_at) / RFU LRRC4B (11730491_at) / Fold change /veh LRRC4B (11730491_at) / RFU GIMAP4 (11747438_a_at) / Fold change /veh GIMAP4 (11747438_a_at) / RFU KRT8 (11758183_x_at) / Fold change /veh KRT8 (11758183_x_at) / RFU CNN1 (11734310_a_at) / Fold change /veh CNN1 (11734310_a_at) / RFU VPS37D (11726825_at) / Fold change /veh VPS37D (11726825_at) / RFU C10orf10 (11716522_x_at) / Fold change /veh C10orf10 (11716522_x_at) / RFU KIR2DL2 /// KIR2DL4 /// KIR2DL5A /// KIR2DL5B /// KIR2DS1 /// KIR2DS2 /// KIR2DS3 /// KIR2DS4 /// KIR3DL3 /// KIR3DL3 /// KIR3DS1 (11738374_at) / Fold change /veh KIR2DL2 /// KIR2DL4 /// KIR2DL5A /// KIR2DL5B /// KIR2DS1 /// KIR2DS2 /// KIR2DS3 /// KIR2DS4 /// KIR3DL3 /// KIR3DL3 /// KIR3DS1 (11738374_at) / RFU C1QL1 (11718748_at) / Fold change /veh C1QL1 (11718748_at) / RFU TMPRSS4 (11747572_a_at) / Fold change /veh TMPRSS4 (11747572_a_at) / RFU HAMP (11756126_x_at) / Fold change /veh HAMP (11756126_x_at) / RFU RNFT2 (11725882_a_at) / Fold change /veh RNFT2 (11725882_a_at) / RFU NR4A2 (11747474_a_at) / Fold change /veh NR4A2 (11747474_a_at) / RFU ABCC12 (11746883_a_at) / Fold change /veh ABCC12 (11746883_a_at) / RFU TMEM136 (11760407_x_at) / Fold change /veh TMEM136 (11760407_x_at) / RFU CLDN22 /// WWC2 (11732394_at) / Fold change /veh CLDN22 /// WWC2 (11732394_at) / RFU HLA-DPB1 (11760878_x_at) / Fold change /veh HLA-DPB1 (11760878_x_at) / RFU SPINT1 (11716480_a_at) / Fold change /veh SPINT1 (11716480_a_at) / RFU GAP43 (11754022_s_at) / Fold change /veh GAP43 (11754022_s_at) / RFU A4GNT (11735810_at) / Fold change /veh A4GNT (11735810_at) / RFU PRB3 (11715151_x_at) / Fold change /veh PRB3 (11715151_x_at) / RFU TUBB4B (11761932_at) / Fold change /veh TUBB4B (11761932_at) / RFU CAPN14 (11732068_a_at) / Fold change /veh CAPN14 (11732068_a_at) / RFU TMCC2 (11721928_a_at) / Fold change /veh TMCC2 (11721928_a_at) / RFU IRGQ (11745062_a_at) / Fold change /veh IRGQ (11745062_a_at) / RFU FAM174B (11720279_a_at) / Fold change /veh FAM174B (11720279_a_at) / RFU TMPRSS4 (11748680_a_at) / Fold change /veh TMPRSS4 (11748680_a_at) / RFU FAM212B (11763350_a_at) / Fold change /veh FAM212B (11763350_a_at) / RFU PLEKHG5 (11743358_a_at) / Fold change /veh PLEKHG5 (11743358_a_at) / RFU ZSCAN30 (11745921_a_at) / Fold change /veh ZSCAN30 (11745921_a_at) / RFU CMKLR1 (11741424_a_at) / Fold change /veh CMKLR1 (11741424_a_at) / RFU LOC101060620 /// MAPK8IP1 (11723275_at) / Fold change /veh LOC101060620 /// MAPK8IP1 (11723275_at) / RFU SPTSSB (11747773_x_at) / Fold change /veh SPTSSB (11747773_x_at) / RFU PRSS12 (11739890_at) / Fold change /veh PRSS12 (11739890_at) / RFU BIN1 (11741810_x_at) / Fold change /veh BIN1 (11741810_x_at) / RFU WNT11 (11732464_a_at) / Fold change /veh WNT11 (11732464_a_at) / RFU C10orf10 (11716521_a_at) / Fold change /veh C10orf10 (11716521_a_at) / RFU C5orf56 (11738089_at) / Fold change /veh C5orf56 (11738089_at) / RFU CYB561 (11721691_x_at) / Fold change /veh CYB561 (11721691_x_at) / RFU ANKRD19P (11752326_a_at) / Fold change /veh ANKRD19P (11752326_a_at) / RFU OR2T12 /// OR2T33 /// OR2T8 (11738714_s_at) / Fold change /veh OR2T12 /// OR2T33 /// OR2T8 (11738714_s_at) / RFU VCAN (11748164_a_at) / Fold change /veh VCAN (11748164_a_at) / RFU JSRP1 (11732532_at) / Fold change /veh JSRP1 (11732532_at) / RFU KRTAP10-11 (11738290_x_at) / Fold change /veh KRTAP10-11 (11738290_x_at) / RFU MYO3A (11730013_a_at) / Fold change /veh MYO3A (11730013_a_at) / RFU EBF3 (11725865_a_at) / Fold change /veh EBF3 (11725865_a_at) / RFU CAMK2N1 (11719241_x_at) / Fold change /veh CAMK2N1 (11719241_x_at) / RFU C5orf56 (11738088_a_at) / Fold change /veh C5orf56 (11738088_a_at) / RFU OLFML3 (11715873_a_at) / Fold change /veh OLFML3 (11715873_a_at) / RFU LOC100653217 /// NTM (11731650_a_at) / Fold change /veh LOC100653217 /// NTM (11731650_a_at) / RFU MAPK11 (11762145_a_at) / Fold change /veh MAPK11 (11762145_a_at) / RFU FIZ1 (11724087_x_at) / Fold change /veh FIZ1 (11724087_x_at) / RFU OASL (11726364_x_at) / Fold change /veh OASL (11726364_x_at) / RFU SOX15 (11748057_x_at) / Fold change /veh SOX15 (11748057_x_at) / RFU CD79A (11719716_a_at) / Fold change /veh CD79A (11719716_a_at) / RFU HIST1H1D (11736915_at) / Fold change /veh HIST1H1D (11736915_at) / RFU CASKIN2 (11723855_a_at) / Fold change /veh CASKIN2 (11723855_a_at) / RFU LOC730098 (11760151_x_at) / Fold change /veh LOC730098 (11760151_x_at) / RFU OR4N2 (11742367_at) / Fold change /veh OR4N2 (11742367_at) / RFU PRRT2 (11749266_a_at) / Fold change /veh PRRT2 (11749266_a_at) / RFU SNX32 (11753110_a_at) / Fold change /veh SNX32 (11753110_a_at) / RFU CDHR5 (11726645_a_at) / Fold change /veh CDHR5 (11726645_a_at) / RFU RCAN1 (11760418_a_at) / Fold change /veh RCAN1 (11760418_a_at) / RFU FAM167A (11723789_a_at) / Fold change /veh FAM167A (11723789_a_at) / RFU FAM26E (11764081_at) / Fold change /veh FAM26E (11764081_at) / RFU ISYNA1 (11749810_s_at) / Fold change /veh ISYNA1 (11749810_s_at) / RFU ACY1 (11761880_at) / Fold change /veh ACY1 (11761880_at) / RFU 11764098_at / Fold change /veh 11764098_at / RFU SAMD14 (11745864_x_at) / Fold change /veh SAMD14 (11745864_x_at) / RFU NPB (11741838_a_at) / Fold change /veh NPB (11741838_a_at) / RFU TMPRSS6 (11731388_a_at) / Fold change /veh TMPRSS6 (11731388_a_at) / RFU KRTAP10-2 (11738614_at) / Fold change /veh KRTAP10-2 (11738614_at) / RFU ARHGAP8 /// PRR5-ARHGAP8 (11727945_x_at) / Fold change /veh ARHGAP8 /// PRR5-ARHGAP8 (11727945_x_at) / RFU KRTAP5-7 /// NADSYN1 (11734609_at) / Fold change /veh KRTAP5-7 /// NADSYN1 (11734609_at) / RFU RASL12 (11751679_a_at) / Fold change /veh RASL12 (11751679_a_at) / RFU CDKN2B (11736163_a_at) / Fold change /veh CDKN2B (11736163_a_at) / RFU PRF1 (11729649_at) / Fold change /veh PRF1 (11729649_at) / RFU, ZNF638 /// ZNF638-IT1 / Fold change vs veh, ZNF638 /// ZNF638-IT1 / RFU, PANK3 / Fold change vs veh, PANK3 / RFU, SH3YL1 / Fold change vs veh, SH3YL1 / RFU, ZEB2 / Fold change vs veh, ZEB2 / RFU, NRIP1 / Fold change vs veh, NRIP1 / RFU, PTTG1IP / Fold change vs veh, PTTG1IP / RFU, CAPN2 / Fold change vs veh, CAPN2 / RFU, MED14 / Fold change vs veh, MED14 / RFU, SNORA58 / Fold change vs veh, SNORA58 / RFU, C1orf63 / Fold change vs veh, C1orf63 / RFU, LRRFIP1 / Fold change vs veh, LRRFIP1 / RFU, NDUFAF7 / Fold change vs veh, NDUFAF7 / RFU, SLC12A2 / Fold change vs veh, SLC12A2 / RFU, IBTK / Fold change vs veh, IBTK / RFU, ESF1 / Fold change vs veh, ESF1 / Fold change vs veh, TMEM50B / RFU, TAOK1 / Fold change vs veh, TAOK1 / RFU, ACBD3 / Fold change vs veh, ACBD3 / RFU, TMA16 / Fold change vs veh, TMA16 / RFU, RWDD3 / Fold change vs veh, RWDD3 / RFU, BCAT1 / Fold change vs veh, BCAT1 / RFU, EDEM3 / Fold change vs veh, EDEM3 / RFU, TMEM33 / Fold change vs veh, TMEM33 / RFU, WDR75 / Fold change vs veh, WDR75 / RFU, AHCTF1 / Fold change vs veh, AHCTF1 / RFU, TFRC / Fold change vs veh, TFRC / RFU, ZDHHC17 / Fold change vs veh, ZDHHC17 / RFU, NOM1 / Fold change vs veh, NOM1 / RFU, ARL8B / Fold change vs veh, ARL8B / RFU, ZBTB11 / Fold change vs veh, ZBTB11 / RFU, TAMM41 / Fold change vs veh, TAMM41 / RFU, KIAA1704 /// LOC100996395 / Fold change vs veh, KIAA1704 /// LOC100996395 / RFU, ING1 / Fold change vs veh, ING1 / RFU, TRMT61B / Fold change vs veh, TRMT61B / RFU, FUBP3 / Fold change vs veh, FUBP3 / RFU, TP53 / Fold change vs veh, TP53 / RFU, TNKS2 / Fold change vs veh, TNKS2 / RFU, ZFP14 / Fold change vs veh, ZFP14 / RFU, ACTR2 / Fold change vs veh, ACTR2 / RFU, PPP3R1 / Fold change vs veh, PPP3R1 / RFU, PIK3R1 / Fold change vs veh, PIK3R1 / RFU, HNRNPA1 / Fold change vs veh, HNRNPA1 / RFU, RNF170 / Fold change vs veh, RNF170 / RFU, ZNF28 / Fold change vs veh, ZNF28 / RFU, RNGTT / Fold change vs veh, RNGTT / RFU, OGT / Fold change vs veh, OGT / RFU, BRD1 / Fold change vs veh, BRD1 / RFU, MARS / Fold change vs veh, MARS / RFU, ZNF655 / Fold change vs veh, ZNF655 / RFU, FAHD1 / Fold change vs veh, FAHD1 / RFU, BDP1 / Fold change vs veh, BDP1 / RFU, LRRCC1 / Fold change vs veh, LRRCC1 / RFU, ARID1A / Fold change vs veh, ARID1A / RFU, ZNF146 / Fold change vs veh, ZNF146 / RFU, ZNF330 / Fold change vs veh, ZNF330 / RFU, GPN3 / Fold change vs veh, GPN3 / RFU, C9orf123 / Fold change vs veh, C9orf123 / RFU, N4BP2L2 / Fold change vs veh, N4BP2L2 / RFU, ARFIP1 / Fold change vs veh, ARFIP1 / RFU, FAM179B / Fold change vs veh, FAM179B / RFU, BCL10 / Fold change vs veh, BCL10 / RFU, UHRF1BP1L / Fold change vs veh, UHRF1BP1L / RFU, BET1 / Fold change vs veh, BET1 / RFU, CNOT2 / Fold change vs veh, CNOT2 / RFU, ZNF268 / Fold change vs veh, ZNF268 / Fold change vs veh, ZNF507 / RFU, DGCR2 / Fold change vs veh, DGCR2 / RFU, WDSUB1 / Fold change vs veh, WDSUB1 / Fold change vs veh, HSP90B1 /// MIR3652 / RFU, ADSS / Fold change vs veh, ADSS / RFU, GK / Fold change vs veh, GK / RFU, ZNF148 / Fold change vs veh, ZNF148 / RFU, TAF9 / Fold change vs veh, TAF9 / RFU, SLC1A5 / Fold change vs veh, SLC1A5 / RFU, SLMO2 / Fold change vs veh, SLMO2 / RFU, ABCC4 / Fold change vs veh, ABCC4 / RFU, LOC101060439 /// RAP1B / Fold change vs veh, LOC101060439 /// RAP1B / RFU, RFX7 / Fold change vs veh, RFX7 / RFU, GTPBP10 / Fold change vs veh, GTPBP10 / RFU, CNEP1R1 / Fold change vs veh, CNEP1R1 / RFU, BIVM-ERCC5 /// ERCC5 / Fold change vs veh, BIVM-ERCC5 /// ERCC5 / RFU, ILF3 / Fold change vs veh, ILF3 / RFU 11762660_at / Fold change /veh 11762660_at / RFU VCAN (11757783_s_at) / Fold change /veh VCAN (11757783_s_at) / RFU DDX43 (11728927_at) / Fold change /veh DDX43 (11728927_at) / RFU KRT8 (11758188_x_at) / Fold change /veh KRT8 (11758188_x_at) / RFU NKD1 (11759106_at) / Fold change /veh NKD1 (11759106_at) / RFU SRD5A1 (11742802_a_at) / Fold change /veh SRD5A1 (11742802_a_at) / RFU TPSAB1 /// TPSB2 (11721975_s_at) / Fold change /veh TPSAB1 /// TPSB2 (11721975_s_at) / RFU GSTM3 (11746129_a_at) / Fold change /veh GSTM3 (11746129_a_at) / RFU IL23R (11737362_x_at) / Fold change /veh IL23R (11737362_x_at) / RFU TMEM51 (11727254_a_at) / Fold change /veh TMEM51 (11727254_a_at) / RFU PIWIL2 (11732686_x_at) / Fold change /veh PIWIL2 (11732686_x_at) / RFU ORM1 (11744905_x_at) / Fold change /veh ORM1 (11744905_x_at) / RFU CCDC152 (11743942_at) / Fold change /veh CCDC152 (11743942_at) / RFU ECM1 (11717891_a_at) / Fold change /veh ECM1 (11717891_a_at) / RFU IL23R (11748794_a_at) / Fold change /veh IL23R (11748794_a_at) / RFU TNFAIP8L3 (11732012_x_at) / Fold change /veh TNFAIP8L3 (11732012_x_at) / RFU MBOAT4 (11741988_at) / Fold change /veh MBOAT4 (11741988_at) / RFU 11764193_at / Fold change /veh 11764193_at / RFU TMEM53 (11763286_at) / Fold change /veh TMEM53 (11763286_at) / RFU MAGEB2 (11727129_at) / Fold change /veh MAGEB2 (11727129_at) / RFU TMEM200A (11744735_a_at) / Fold change /veh TMEM200A (11744735_a_at) / RFU CCDC152 (11751479_a_at) / Fold change /veh CCDC152 (11751479_a_at) / RFU FAM211A (11726209_a_at) / Fold change /veh FAM211A (11726209_a_at) / RFU RGS16 (11746705_a_at) / Fold change /veh RGS16 (11746705_a_at) / RFU VCAN (11755009_s_at) / Fold change /veh VCAN (11755009_s_at) / RFU RHOB (11743442_s_at) / Fold change /veh RHOB (11743442_s_at) / RFU RGS16 (11720943_a_at) / Fold change /veh RGS16 (11720943_a_at) / RFU RGS16 (11720944_at) / Fold change /veh RGS16 (11720944_at) / RFU, VPS4B / Fold change vs veh, VPS4B / RFU, CREB1 / Fold change vs veh, CREB1 / RFU, DNAJC13 / Fold change vs veh, DNAJC13 / RFU, GNAQ / Fold change vs veh, GNAQ / RFU, CDK5R1 / Fold change vs veh, CDK5R1 / RFU, ZRANB3 / Fold change vs veh, ZRANB3 / RFU, CUL4A / Fold change vs veh, CUL4A / RFU, CCNY / Fold change vs veh, CCNY / RFU, UFL1 / Fold change vs veh, UFL1 / RFU, COG3 / Fold change vs veh, COG3 / RFU, DIAPH2 / Fold change vs veh, DIAPH2 / RFU, SKA2 / Fold change vs veh, SKA2 / RFU, AFF3 / Fold change vs veh, AFF3 / RFU, LMF1 / Fold change vs veh, LMF1 / RFU, IPO11 / Fold change vs veh, IPO11 / RFU, DFFB / Fold change vs veh, DFFB / RFU, FOXP1 / Fold change vs veh, FOXP1 / RFU, CARD8 / Fold change vs veh, CARD8 / RFU, STRN3 / Fold change vs veh, STRN3 / RFU, ADK / Fold change vs veh, ADK / RFU, RASSF2 / Fold change vs veh, RASSF2 / RFU, WIPF1 / Fold change vs veh, WIPF1 / RFU, LARP1B / Fold change vs veh, LARP1B / RFU, RASA1 / Fold change vs veh, RASA1 / RFU, RB1 / Fold change vs veh, RB1 / RFU, PPFIA1 / Fold change vs veh, PPFIA1 / RFU, MAT2A / Fold change vs veh, MAT2A / RFU, CCT5 / Fold change vs veh, CCT5 / RFU, WDR92 / Fold change vs veh, WDR92 / RFU, CUX1 / Fold change vs veh, CUX1 / RFU, TTC7A / Fold change vs veh, TTC7A / RFU, TMEM135 / Fold change vs veh, TMEM135 / RFU, DEPTOR / Fold change vs veh, DEPTOR / RFU, CPM / Fold change vs veh, CPM / RFU, DNAJB6 / Fold change vs veh, DNAJB6 / RFU, CACNA2D3 / Fold change vs veh, CACNA2D3 / RFU, DTX4 / Fold change vs veh, DTX4 / RFU, TFCP2 / Fold change vs veh, TFCP2 / RFU, GMCL1 /// GMCL1P1 / Fold change vs veh, GMCL1 /// GMCL1P1 / RFU, AEBP2 / Fold change vs veh, AEBP2 / RFU, SNHG1 /// SNORD22 /// SNORD25 /// SNORD26 /// SNORD27 /// SNORD28 /// SNORD29 /// SNORD31 / Fold change vs veh, SNHG1 /// SNORD22 /// SNORD25 /// SNORD26 /// SNORD27 /// SNORD28 /// SNORD29 /// SNORD31 / Fold change (Aza/veh), C12orf56 (ProbeSet 11735607_a_at) / Fold change (ACY-1035/veh), C12orf56 (ProbeSet 11735607_a_at) / Fold change (Aza/veh), FGFR1OP (ProbeSet 11751329_s_at) / Fold change (ACY-1035/veh), FGFR1OP (ProbeSet 11751329_s_at) / Fold change (Aza/veh), VPS36 (ProbeSet 11739960_a_at) / Fold change (ACY-1035/veh), VPS36 (ProbeSet 11739960_a_at) / RFU SYPL1 (11715823_x_at) / Fold change /veh SYPL1 (11715823_x_at) / RFU IGFBP7 (11715501_s_at) / Fold change /veh IGFBP7 (11715501_s_at) / RFU REEP3 (11722064_at) / Fold change /veh REEP3 (11722064_at) / RFU IGLL1 (11728026_x_at) / Fold change /veh IGLL1 (11728026_x_at): dose or concentration left out as unconfirmed
Details: MV-4-11 cells, 48 hours

Nc1ncn([C@@H]2O[C@H](CO)[C@@H](O)[C@H]2O)c(=O)n1 [azacitidine]
RFU CCDC152 (11751479_a_at): 11.18 RFU
